Measurements taken from PubChem BioAssay (NCI).
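Growth conditions: 96-well plates. Treatment: test compound, 48 hours, 5 concentrations. Analysis: linear interpolation between bracketing concentrations; unreached endpoints set to highest concentration. At the GI50, growth is halved. TGI: total growth inhibition.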

Experiments:
Assay in all cases: NCI anticancer screen, dose series, 48 h
HCT-15 colon = system: HCT-15 colon
M14 melanoma = system: M14 melanoma
LOX IMVI melanoma = system: LOX IMVI melanoma
SW-620 colon = system: SW-620 colon
OVCAR-5 ovarian = system: OVCAR-5 ovarian
HOP-92 NSCLC = system: HOP-92 NSCLC
SF-539 CNS = system: SF-539 CNS
UACC-62 melanoma = system: UACC-62 melanoma
A498 renal = system: A498 renal
RPMI-8226 leukemia = system: RPMI-8226 leukemia
OVCAR-4 ovarian = system: OVCAR-4 ovarian
HL-60(TB) leukemia = system: HL-60(TB) leukemia
HOP-62 NSCLC = system: HOP-62 NSCLC
MALME-3M melanoma = system: MALME-3M melanoma
MDA-MB-435 = system: MDA-MB-435
SK-MEL-2 melanoma = system: SK-MEL-2 melanoma
K-562 leukemia = system: K-562 leukemia
ACHN renal = system: ACHN renal
UO-31 renal = system: UO-31 renal
U251 CNS = system: U251 CNS
RXF 393 renal = system: RXF 393 renal
NCI-H23 lung = system: NCI-H23 lung
MDA-MB-231 breast = system: MDA-MB-231 breast
CCRF-CEM leukemia = system: CCRF-CEM leukemia
MCF7 breast = system: MCF7 breast
SK-MEL-28 melanoma = system: SK-MEL-28 melanoma
A549 NSCLC = system: A549 NSCLC
OVCAR-3 ovarian = system: OVCAR-3 ovarian
T-47D breast = system: T-47D breast
PC-3 prostate = system: PC-3 prostate
EKVX NSCLC = system: EKVX NSCLC
TK-10 renal = system: TK-10 renal
SF-295 CNS = system: SF-295 CNS
786-0 renal = system: 786-0 renal
HS 578T breast = system: HS 578T breast
SN12C renal = system: SN12C renal
SNB-19 CNS = system: SNB-19 CNS
HCT-116 colon = system: HCT-116 colon
UACC-257 melanoma = system: UACC-257 melanoma
MOLT-4 leukemia = system: MOLT-4 leukemia
SF-268 CNS = system: SF-268 CNS
SK-MEL-5 melanoma = system: SK-MEL-5 melanoma
HT29 colon = system: HT29 colon
IGROV1 ovarian = system: IGROV1 ovarian
COLO 205 colon = system: COLO 205 colon
BT-549 breast = system: BT-549 breast
KM12 colon = system: KM12 colon
MDA-N = system: MDA-N
OVCAR-8 ovarian = system: OVCAR-8 ovarian
NCI-H522 lung = system: NCI-H522 lung
DU-145 prostate = system: DU-145 prostate
CAKI-1 renal = system: CAKI-1 renal
NCI/ADR-RES ovarian = system: NCI/ADR-RES ovarian
SNB-75 CNS = system: SNB-75 CNS
NCI-H226 lung = system: NCI-H226 lung
NCI-H460 lung = system: NCI-H460 lung
HCC-2998 colon = system: HCC-2998 colon
SK-OV-3 ovarian = system: SK-OV-3 ovarian
SR leukemia = system: SR leukemia

Q: Which results are given for `C#CC(O)(c1nc2ccccc2s1)c1nc2ccccc2s1`?
A: TGI (HCT-15 colon): 60.6 µM; TGI (M14 melanoma): 32.8 µM; TGI (LOX IMVI melanoma): 35.7 µM; TGI (SW-620 colon): > 100 µM; TGI (OVCAR-5 ovarian): 51.6 µM; TGI (HOP-92 NSCLC): 38.2 µM; TGI (SF-539 CNS): 36.7 µM; TGI (UACC-62 melanoma): 26.1 µM; TGI (A498 renal): 35.2 µM; TGI (RPMI-8226 leukemia): 76.8 µM; TGI (OVCAR-4 ovarian): > 100 µM; TGI (HL-60(TB) leukemia): 46.1 µM; TGI (HOP-62 NSCLC): 85.1 µM; TGI (MALME-3M melanoma): > 100 µM; TGI (MDA-MB-435): 87.6 µM; TGI (SK-MEL-2 melanoma): 35.7 µM; TGI (K-562 leukemia): > 100 µM; TGI (ACHN renal): 83.2 µM; TGI (UO-31 renal): 29.4 µM; TGI (U251 CNS): 44 µM; TGI (RXF 393 renal): 89.7 µM; TGI (NCI-H23 lung): 56.1 µM; TGI (MDA-MB-231 breast): 39.7 µM; TGI (CCRF-CEM leukemia): 79 µM; TGI (MCF7 breast): 52.9 µM; TGI (SK-MEL-28 melanoma): > 100 µM; TGI (A549 NSCLC): > 100 µM; TGI (OVCAR-3 ovarian): 40.8 µM; TGI (T-47D breast): 88.9 µM; TGI (PC-3 prostate): 64.7 µM; TGI (EKVX NSCLC): 57.5 µM; TGI (TK-10 renal): > 100 µM; TGI (SF-295 CNS): 76.8 µM; TGI (786-0 renal): 38.9 µM; TGI (HS 578T breast): > 100 µM; TGI (SN12C renal): 42.6 µM; TGI (SNB-19 CNS): > 100 µM; TGI (HCT-116 colon): 30.2 µM; TGI (UACC-257 melanoma): 88.5 µM; TGI (MOLT-4 leukemia): > 100 µM; TGI (SF-268 CNS): > 100 µM; TGI (SK-MEL-5 melanoma): 30.7 µM; TGI (HT29 colon): 77.6 µM; TGI (IGROV1 ovarian): 31.6 µM; TGI (COLO 205 colon): 40 µM; TGI (BT-549 breast): 57.3 µM; TGI (KM12 colon): > 100 µM; TGI (MDA-N): 57.4 µM; TGI (OVCAR-8 ovarian): 51.5 µM; TGI (NCI-H522 lung): 39.7 µM; TGI (DU-145 prostate): > 100 µM; TGI (CAKI-1 renal): > 100 µM; TGI (NCI/ADR-RES ovarian): 75.6 µM

Q: Which results are given for `O=C1CCc2c(sc3[nH]c(=S)n(-c4cc(C(F)(F)F)cc(C(F)(F)F)c4)c(=O)c23)C1`?
A: GI50 (HCT-15 colon): 0.338 µM; TGI (HCT-15 colon): 1.36 µM; GI50 (M14 melanoma): 0.463 µM; TGI (M14 melanoma): 11.9 µM; GI50 (LOX IMVI melanoma): 0.392 µM; TGI (LOX IMVI melanoma): 5.62 µM; GI50 (SW-620 colon): 0.376 µM; TGI (SW-620 colon): 15.7 µM; GI50 (OVCAR-5 ovarian): 0.438 µM; TGI (OVCAR-5 ovarian): 2.19 µM; GI50 (HOP-92 NSCLC): 0.205 µM; TGI (HOP-92 NSCLC): 0.692 µM; GI50 (SF-539 CNS): 0.362 µM; TGI (SF-539 CNS): 1.7 µM; GI50 (UACC-62 melanoma): 0.294 µM; TGI (UACC-62 melanoma): 1.23 µM; GI50 (A498 renal): 2.15 µM; TGI (A498 renal): 7.44 µM; GI50 (RPMI-8226 leukemia): 0.411 µM; TGI (RPMI-8226 leukemia): 3.03 µM; GI50 (OVCAR-4 ovarian): 0.359 µM; TGI (OVCAR-4 ovarian): 1.72 µM; GI50 (SNB-75 CNS): 0.328 µM; TGI (SNB-75 CNS): 3.66 µM; GI50 (HL-60(TB) leukemia): 0.304 µM; TGI (HL-60(TB) leukemia): 1.21 µM; GI50 (HOP-62 NSCLC): 0.553 µM; TGI (HOP-62 NSCLC): 11.8 µM; GI50 (MALME-3M melanoma): 0.462 µM; TGI (MALME-3M melanoma): 2.77 µM; GI50 (MDA-MB-435): 1.22 µM; TGI (MDA-MB-435): 5.45 µM; GI50 (SK-MEL-2 melanoma): 0.721 µM; TGI (SK-MEL-2 melanoma): 3.74 µM; GI50 (K-562 leukemia): 0.185 µM; TGI (K-562 leukemia): > 73.1 µM; GI50 (ACHN renal): 0.344 µM; TGI (ACHN renal): 1.31 µM; GI50 (NCI-H226 lung): 0.801 µM; TGI (NCI-H226 lung): 7.04 µM; GI50 (UO-31 renal): 0.292 µM; TGI (UO-31 renal): 1.11 µM; GI50 (NCI-H460 lung): 0.353 µM; TGI (NCI-H460 lung): 2.03 µM; GI50 (U251 CNS): 0.364 µM; TGI (U251 CNS): 1.97 µM; GI50 (RXF 393 renal): 0.392 µM; TGI (RXF 393 renal): 5.16 µM; GI50 (NCI-H23 lung): 0.346 µM; TGI (NCI-H23 lung): 2.24 µM; GI50 (MDA-MB-231 breast): 0.336 µM; TGI (MDA-MB-231 breast): 1.45 µM; GI50 (CCRF-CEM leukemia): 0.349 µM; TGI (CCRF-CEM leukemia): 5.81 µM; GI50 (HCC-2998 colon): 0.509 µM; TGI (HCC-2998 colon): 1.91 µM; GI50 (SK-OV-3 ovarian): 0.947 µM; TGI (SK-OV-3 ovarian): 5.54 µM; GI50 (MCF7 breast): 0.447 µM; TGI (MCF7 breast): 16.4 µM; GI50 (SK-MEL-28 melanoma): 0.459 µM; TGI (SK-MEL-28 melanoma): 3.7 µM; GI50 (A549 NSCLC): 0.707 µM; TGI (A549 NSCLC): 11.3 µM; GI50 (OVCAR-3 ovarian): 0.358 µM; TGI (OVCAR-3 ovarian): 1.49 µM; GI50 (T-47D breast): 0.385 µM; TGI (T-47D breast): 2.46 µM; GI50 (PC-3 prostate): 0.307 µM; TGI (PC-3 prostate): 2.35 µM; GI50 (EKVX NSCLC): 0.378 µM; TGI (EKVX NSCLC): 5.14 µM; GI50 (TK-10 renal): 0.874 µM; TGI (TK-10 renal): > 44.1 µM; GI50 (SR leukemia): 0.516 µM; TGI (SR leukemia): > 100 µM; GI50 (SF-295 CNS): 0.318 µM; TGI (SF-295 CNS): 1.1 µM; GI50 (786-0 renal): 0.602 µM; TGI (786-0 renal): 10.5 µM; GI50 (HS 578T breast): 0.339 µM; TGI (HS 578T breast): 16.4 µM; GI50 (SN12C renal): 0.352 µM; TGI (SN12C renal): 11.8 µM; GI50 (SNB-19 CNS): 0.384 µM; TGI (SNB-19 CNS): > 37 µM; GI50 (HCT-116 colon): 0.341 µM; TGI (HCT-116 colon): 2.54 µM; GI50 (UACC-257 melanoma): 0.725 µM; TGI (UACC-257 melanoma): 4.6 µM; GI50 (MOLT-4 leukemia): 0.636 µM; TGI (MOLT-4 leukemia): 9.15 µM; GI50 (SF-268 CNS): 0.469 µM; TGI (SF-268 CNS): > 45.4 µM; GI50 (SK-MEL-5 melanoma): 0.217 µM; TGI (SK-MEL-5 melanoma): 0.465 µM; GI50 (HT29 colon): 0.939 µM; TGI (HT29 colon): > 33.6 µM; GI50 (IGROV1 ovarian): 0.446 µM; TGI (IGROV1 ovarian): 3.44 µM; GI50 (COLO 205 colon): 0.258 µM; TGI (COLO 205 colon): 0.668 µM; GI50 (BT-549 breast): 0.325 µM; TGI (BT-549 breast): 1.99 µM; GI50 (KM12 colon): 0.344 µM; TGI (KM12 colon): 1.36 µM; GI50 (OVCAR-8 ovarian): 0.457 µM; TGI (OVCAR-8 ovarian): > 37.8 µM; GI50 (NCI-H522 lung): 0.344 µM; TGI (NCI-H522 lung): 1.5 µM; GI50 (DU-145 prostate): 0.775 µM; TGI (DU-145 prostate): > 40 µM; GI50 (CAKI-1 renal): 0.377 µM; TGI (CAKI-1 renal): 4.54 µM; GI50 (NCI/ADR-RES ovarian): 0.351 µM; TGI (NCI/ADR-RES ovarian): 11.4 µM
